Experimental data reported in patent US20060121441A1, “Methods of determining the effect of an agent on diploid cells and/or on the pattern of expression of polypeptides expressed therewith” (priority 2002, published 2006).

Assays:
Type in all cases: cell-based, Aplysia californica
EB3 association with MTs = experiment: Confocal imaging of EGFP-EB3 and microtubules in cultured neurons; conditions: EGFP-EB3-expressing neurons
Excerpt: (§1) Cell culture—Neurons B1 and B2 from buccal ganglia, MCn neurons from the metacerebral ganglion, sensory neurons from the pleuropeadal ganglion and LUQs from the abdominal ganglion of Aplysia californica were isolated and maintained in culture as previously described [Schacher and Proshansky, (1983); Spira et al., (1993, 1996)].
Expression constructs—Enzymes were obtained from (New England Biolabs, Beverly, Mass., USA). Each of the chimeric cDNAs of EGFP-EB3, EGFP-p50 and EGFP-MLIV was subcloned into the pCS2+ expression vector as described below [Rupp (1994); Turner and Weintraub (1994)]. For EGFP-EB the pCS2+ vector was cut with XhoI and SnaB. The insert (EGFP-EB3) was cut with NotI, fill in and cut with SalI. For EGFP-P50 the pCS2+ vector was cut with XbaI and the insert was cut with NheI and SpeI.
In-vitro transcription—5′-capped and 3′-polyadenylated mRNA was in vitro transcribed using recombinant in vitro transcription system (Promega, Madison, Wis., USA,). 10 μg of NotI-linearized pCS2+ was used as a template to transcribe capped mRNA. The transcription reaction was effected with RiboMax-sp6 kit (Promrga-P1280). Briefly, a reaction mixture was prepared by mixing 8 μl Transcription ×5 Buffer, 8 μl rNTPs mix containing 25 mM CTP, ATP, UTP and 12 mM GTP, 4 μl of 15 mM Cap analog (Roche 85846029), 1 μl of 40 units rRnasin (Promega N251A), 4 μl enzyme mix and 1-2 μg linear plasmid. Final reaction volume was compensated to 40 μl. […]
Mag-fura-2 Ca^2+ imaging—To study the local effect of elevated calcium levels on the distribution of a given fluorescentlly labled protein ratio imaging of the free intracellular calcium concentration was effected by mag fura-2. […] The fluorescence microscopy system consisted of a Zeiss Axiovert microscope equipped with a 75 W Xenon arc lamp, a Zeiss 40×0.75 NA Plan-Neofluar objective, 340±5 nm and 380±5 nm bandpass excitation filters set in a computer-controlled, Lambda10 position filter changer (Sutter, Novato Calif.), a dichroic mirror with a cut-off threshold of 505 nm and a 545±25 nm band pass emission filter. […]

[1] = system: actin bundles at the leading edge of growth cones; experiment: Confocal imaging of EGFP-actin bundles in growth cones of cultured neurons injected with mRNA encoding EGFP-actin
Excerpt: as §1
EGFP cDNA was amplified from pEGFP-N1 vector (Clontech, Palo-Alto, Calif., USA) by polymerase chain reaction (PCR) with two specific primers: 5′-GGCCATGGTGAGCAAGG-3′ and 5′-CTTGTACAGCTCGTCCATG-3′(Genset Oligos) (SEQ ID NOs: 1 and 2, respectively). The PCR product was digested with HindII and SmaI and subcloned into corresponding sites of Bluescript II SK (Stratagen, La Jolla, Calif.). Aplysia actin provided by Dr DesGrosiller (Montreal University, Canada) was amplified by PCR from Bluescript containing the actin cDNA using two specific primers: 5′-ATGTGTGACGACGATGTT-3′ and 5′-TTAGAAGCACTTGCGGTCG-3′ (SEQ ID NOs: 3 and 4, respectively) with SmaI and XbaI restriction sites at their 5′ ends. Following digestion, the PCR product was subcloned in-frame with EGFP into the previously prepared pBluescript-EGFP vector linearized with SmaI and XbaI. The EGFP-Actin fragment was then cut out from pBluescript with ClaI and XbaI and subcloned into corresponding sites of pCS2+ vector [Rupp (1994); Turner and Weintraub (1994) supra]. […]

microtubules = experiment: Confocal imaging of EGFP-tubulin labelled microtubules in axotomy-induced growth cone of cultured neurons
Experimental: mRNA microinjection—mRNA was injected into the cytoplasm of Aplysia neurons bathed in ASW 8-48 hours following plating. 0.5-5 μg/μl mRNA in 80 mM KCl was used for injection. Injection was performed by pressure using Medical System Corp microinjector inserted into the cell body under visual control. Approximately up to 10% of the cell's body volume was injected. […] Good penetration was indicated by a resting potential of >−35 mV and measuring a typical input resistance. At the end of the injection, the micropipette tip was pooled out gently of the neuron. Cells were imaged for protein expression 12-48 hours following injection.
Axotomy—Axonal transection was performed by applying pressure on the axon with the thin shaft of a micropipette under visual control, as previously described [Spira et al., 1993, 1996; Ziv and Spira, (1993)].

With `CCCC[C@@H](C=O)NC(=O)[C@H](CC(C)C)NC(=O)OCc1ccccc1` [calpeptin] the “effect on MTs and EB3 association with MTs” value (EB3 association with MTs) was “induces milled dissociation of EB3 from the MTs”.
For `C=C1[C@@H](C)[C@H]2[C@H](Cc3ccccc3)NC(=O)[C@]23OC(=O)/C=C/[C@H](O)CCC[C@@H](C)C/C=C/[C@H]3[C@@H]1O` [cytochalasin B], the “effect on EGFP labeled actin bundles at the leading edge of growth cones” value ([1]; cultured B1 neuron, nine minutes following bath application of 2 mM) was “actin bundles disassembly and the formation of small actin aggregates within the collapsed growth cones and the axoplasm” and the “depolymerisation of fluorescent actin bundles after application” value ([1]; growth cone formed after axotomy, FIGS. 3a-b) was “depolymerised within minutes”.
`C[C@H](CCC(=O)O)C[C@H](C)C[C@H](C)C(=O)/C=C(\O)[C@H](C)C[C@H](C)C/C=C/[C@@H](C)[C@@H](O)[C@@H](C)[C@@H](O)C[C@@H]1CC[C@@](C)([C@H]2CC[C@@](C)([C@@H](C)O)O2)O1` [ionomycin] was tested, and the “mimicry of the axotomy-induced MT depolymerization/repolymerization and vesicle trap process by local elevation of [Ca2+]i” value (EB3 association with MTs; local application) was “able to mimic the process”.
`COC(=O)Nc1nc2ccc(C(=O)c3cccs3)cc2[nH]1` [nocodazole] was tested, and the “effect on MTs and EB3 association with MTs” value (EB3 association with MTs) was “induces MTs deplymerization and dissociation of EB3 from the MTs”, the “effect on EGFP-tubulin microtubules in growth cone lamellipodium” value (microtubules; bath application 5 mM for 5 min) was “depolymerisation of most microtubules” and the “effect on EGFP labelled microtubules within growth cone” value (microtubules; cultured B1 neuron, twenty three minutes following bath application of 5 mM) was “microtubules depolymerise”.
